Tests used:
Type in all cases: cell-based
mutant CFTR = molecular target: T1, mutant CFTR (Homo sapiens, UniProt P13569, DEL508-508); test: Fluorescence (HS-YFP) assay for CFTR activity, corrector assay; conditions: CFBE41o- and FRT cells with stable expression of mutant CFTR, 24 h compound treatment
T1 construct: expressed in transfected cells
Procedure, shortened: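 Corrector activity: 24 h compound treatment of HS-YFP/mutant-CFTR CFBE41o- or FRT cells, followed by 30 min forskolin 20 μM + genistein 50 μM at 37° C. Iodide influx (100 mM final) was tracked as fluorescence quenching, with dF/dt extrapolated by exponential fitting; EC50 values derived.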

F508del-CFTR [1] = molecular target: T2, F508del-CFTR (Homo sapiens, UniProt P13569, DEL508-508); test: Transepithelial electrical conductance (TEEC) in FRT cells expressing F508del-CFTR; set-up: expressed in transfected cells; host or cells: FRT cells; conditions: compounds tested at 5.0 μM, 24 hrs, table 2
T2 sequence (P13569 with tags, fused parts or gaps DEL508-508): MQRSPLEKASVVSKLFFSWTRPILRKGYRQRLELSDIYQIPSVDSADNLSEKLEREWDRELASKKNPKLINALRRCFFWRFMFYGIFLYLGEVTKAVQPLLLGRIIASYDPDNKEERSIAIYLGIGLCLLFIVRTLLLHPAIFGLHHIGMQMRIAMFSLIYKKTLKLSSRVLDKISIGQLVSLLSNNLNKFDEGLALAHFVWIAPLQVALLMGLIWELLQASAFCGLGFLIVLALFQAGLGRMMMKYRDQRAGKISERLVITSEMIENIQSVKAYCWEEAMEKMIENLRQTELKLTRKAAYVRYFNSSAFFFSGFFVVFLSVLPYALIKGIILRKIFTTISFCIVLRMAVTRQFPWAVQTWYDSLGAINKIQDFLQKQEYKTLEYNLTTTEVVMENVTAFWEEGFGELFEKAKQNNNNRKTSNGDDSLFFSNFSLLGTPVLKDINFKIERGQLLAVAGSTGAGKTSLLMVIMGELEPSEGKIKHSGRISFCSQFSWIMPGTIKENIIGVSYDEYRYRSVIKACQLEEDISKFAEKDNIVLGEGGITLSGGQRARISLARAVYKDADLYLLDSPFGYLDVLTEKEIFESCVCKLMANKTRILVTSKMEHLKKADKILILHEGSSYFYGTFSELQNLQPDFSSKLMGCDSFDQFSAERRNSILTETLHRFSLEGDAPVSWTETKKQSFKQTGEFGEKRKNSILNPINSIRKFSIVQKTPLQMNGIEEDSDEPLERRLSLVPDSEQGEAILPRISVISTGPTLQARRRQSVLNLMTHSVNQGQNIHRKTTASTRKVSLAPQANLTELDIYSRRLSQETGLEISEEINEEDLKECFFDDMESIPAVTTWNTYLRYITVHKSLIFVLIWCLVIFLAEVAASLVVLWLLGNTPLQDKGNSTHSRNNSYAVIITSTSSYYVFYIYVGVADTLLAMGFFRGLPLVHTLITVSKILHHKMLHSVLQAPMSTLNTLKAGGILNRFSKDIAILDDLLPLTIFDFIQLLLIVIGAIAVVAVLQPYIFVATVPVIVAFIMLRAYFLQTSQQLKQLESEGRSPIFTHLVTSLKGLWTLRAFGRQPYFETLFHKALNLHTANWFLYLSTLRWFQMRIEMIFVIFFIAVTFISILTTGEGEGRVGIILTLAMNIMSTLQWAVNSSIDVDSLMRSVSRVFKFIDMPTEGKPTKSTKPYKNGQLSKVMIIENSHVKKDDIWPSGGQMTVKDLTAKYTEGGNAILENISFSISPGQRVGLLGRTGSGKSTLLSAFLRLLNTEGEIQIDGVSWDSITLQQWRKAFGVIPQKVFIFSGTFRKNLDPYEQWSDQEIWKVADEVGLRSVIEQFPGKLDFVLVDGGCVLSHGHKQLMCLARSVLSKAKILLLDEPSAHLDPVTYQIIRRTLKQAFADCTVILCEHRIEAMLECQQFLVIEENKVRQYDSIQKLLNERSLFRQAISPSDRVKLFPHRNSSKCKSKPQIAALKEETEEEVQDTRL
Procedure: Transepithelial Electrical Conductance (TEEC)
FRT cells expressing F508del-CFTR were plated on HTS Transwell-24 well permeable supports (Code 3379, Corning Life Sciences) at a density of 200,000 cells/well. After six days, cells were incubated for 24 hrs with test correctors, vehicle, or VX-809. Compounds were dissolved in both basolateral (800 μL) and apical (300 μL) culture medium. After treatment, the culture medium was removed and replaced on both sides with a saline solution containing (in mM): 130 NaCl, 2.7 KCl, 1.5 KH2PO4, 1 CaCl2), 0.5 MgCl2, 10 glucose, 10 Na-Hepes (pH 7.4). The basolateral and apical side received 800 μL and […], respectively. The 24-well tray with cells was placed on a block heater (SBH 130D, Stuart) to keep the temperature at 37° C. during the entire experiment. After 10 min, the basal transepithelial electrical resistance (TEER) across each layer of FRT cells was measured with a STX100C electrode pair connected to an EVOM2 voltohmeter (World Precision Instruments). To stimulate F508del-CFTR, each well received (apical side) 50 μL of saline solution containing 60 μM forskolin and 150 μM genistein (final concentrations: 20 μM forskolin, 50 μM genistein). Forskolin was also pipetted in the basolateral medium to obtain the 20 μM concentration. After 10 min TEER was measured again in each well. To block F508del-CFTR function, the inhibitor PPQ-102 was used at the final concentration of 30 μM. To achieve the desired concentration, 75 μL of the apical solution in each well was replaced with an equal volume of saline solution containing 20 μM forskolin, 50 μM genistein, and 60 μM PPQ-102. After further 10 min, the transepithelial electrical resistance was measured. All values of TEER were converted to transepithelial electrical conductance (TEEC) using the formula TEEC=1/TEER. The parameter to indicate activity of F508del-CFTR in each well (ATEEC) was calculated from the difference in TEEC measured after maximal stimulation of F508del-CFTR with forskolin and genistein and after block with PPQ-102.
Corrector activities obtained on selected compounds tested at 5.0 μM (expressed as ΔTEEC values) are illustrated in table 2, wherein +: ΔTEEC<2000 μS; ++: 2000 μS<ΔTEEC<3000 μS; […]: ΔTEEC>3000 μS.

F508del-CFTR [2] = molecular target: T2, F508del-CFTR; test: Short-circuit current recordings on human bronchial epithelial cells (F508del/F508del); set-up: Human bronchial epithelial (HBE) cells obtained from CF patients (F508del/F508del genotype); endogenous in cells; host or cells: primary human bronchial epithelial cells from CF patients, F508del/F508del; conditions: HBE cells from CF patients (F508del/F508del), 24 hrs treatment; table 3
Procedure: Short-Circuit Current Recordings on Human Bronchial Epithelial Cells
Human bronchial epithelial (HBE) cells obtained from CF patients (F508del/F508del genotype) were plated on Snapwell inserts (Code 3801, Corning Life Sciences) at a density of 500,000 cells per insert. Cells were cultured for two weeks in a differentiating medium whose compositions has been previously described (Scudieri et al., J Physiol 590:6141-6155, 2012). For the first week, the medium was kept on both apical and basolateral sides of inserts (submerged condition). For the second week, the apical medium was removed (air-liquid condition, ALC). To test the activity of correctors, cells were treated for 24 hrs with compounds dissolved in the basolateral medium. After treatment, Snapwell inserts carrying differentiated bronchial epithelia were mounted in a vertical chamber resembling an Ussing system with internal fluid circulation. Both apical and basolateral hemichambers were filled with 5 mL of a Krebs bicarbonate solution containing (in mM): 126 NaCl, 0.38 KH2PO4, 2.13 K2HPO4, 1 MgSO4, 1 CaCl2), 24 NaHCO3, and 10 glucose. Both sides were continuously bubbled with a gas mixture containing 5% CO2-95% air and the temperature of the solution was kept at 37° C. The transepithelial voltage was short-circuited with a voltage-clamp (DVC-1000, World Precision Instruments) connected to the apical and basolateral chambers via Ag/AgCl electrodes and agar bridges (1 M KCl in 1% agar). The offset between voltage electrodes and the fluid resistance were canceled before experiments. The short-circuit current was recorded with a PowerLab 4/25 (ADInstruments) analogical to digital converter connected to a Macintosh computer. […] The difference between the current measured with CPT-cAMP plus potentiator and the current remaining after CFTRinh-172 treatment (ΔICFTR) was taken as the parameter reflecting F508del-CFTR expression in the apical membrane.
Activities of selected compounds on HBE cells (expressed as ΔICFTR) are illustrated in table 3 wherein +: ΔICFTR<2.0 μA; ++: 2.0 μA<ΔICFTR<3.0 μA; +++: ΔICFTR>3.0 μA.

T1 sequence (P13569 with tags, fused parts or gaps DEL508-508): as above

Compound | EC50 (mutant CFTR) [µM] | Corrector activity (ΔTEEC) (F508del-CFTR [1]) | activity on HBE cells (ΔICFTR) (F508del-CFTR [2])
Cc1nc2ccc(N(C)C(=O)c3cccc(-n4nc(C(F)(F)F)c(Cl)c4C)c3)cc2o1 [compound 108, 3-[4-Chloro-5-methyl-3-(trifluoromethyl)pyrazol-1-yl]-N-methyl-N-(2-methyl-1,3-benzoxazol-6-yl)benzamide] | < 1 | ++ (2000 μS<ΔTEEC<3000 μS) | + (ΔICFTR<2.0 μA)
CN(C(=O)c1cccc(-n2nc(C(F)(F)F)cc2-c2ccccc2)c1)c1ccc2c(c1)OCO2 [compound 125, N-(1,3-Benzodioxol-5-yl)-N-methyl-3-[5-phenyl-3-(trifluoromethyl)pyrazol-1-yl]benzamide] | < 1 | + (ΔTEEC<2000 μS) | + (ΔICFTR<2.0 μA)
CCOC(=O)c1ccc(OCc2c(Cl)c(C)nn2-c2cccc(C(=O)N(C)c3ccc4c(c3)OCO4)c2)cc1 [compound 141, Ethyl 4-[[2-[3-[1,3-benzodioxol-5-yl(methyl)carbamoyl]phenyl]-4-chloro-5-methyl-pyrazol-3-yl]methoxy]benzoate] | < 1 | ++ (2000 μS<ΔTEEC<3000 μS) | +++ (ΔICFTR>3.0 μA)

Source: patent US12492193B2, “Pyrazole derivatives for the treatment of cystic fibrosis” (Fondazione Istituto Italiano Di Tecnologia, priority 2017, dated 2025)
